# Laboratory results as given in publication PMC12514245, “Impaired migration and lung invasion of human melanoma by a novel small molecule targeting the transmembrane domain of death receptor p75^NTR” (EMBO Molecular Medicine, 2025).
# Where “and” joins values, the source holds several entries; their conditions need not be identical. Equal values may be shown once. Entries after “also recorded” stand apart in the source; their conditions may differ. Read-outs that look alike come from different tables or passages of the source.
# Experiments:
# [1] = Cell viability (Presto Blue), A875 shp75; type: cell-based, human; conditions: human, A875 shp75 cells, 2 days; for viability at 2 days, 1 uM: Div17E5 1 uM; for viability at 2 days, 1.5 uM: Div17E5 1.5 uM
# Method: (§1) To measure the cytotoxic effect of Div17E5, A875 NT or shp75 cells were seeded at 2000 cells per well (in 100 μL DMEM) in a 96-well plate and incubated for 12 h. Next, Div17E5 at various concentrations was added and incubated at 37 °C in 5% CO2 for 2 days. Following treatment, 10 μL Presto Blue® (resazurin, ThermoFIsher) was added to each well of the 96-well plate and incubated for 2 h at 37 °C in 5% CO2. Cellular fluorescence in each well was measured at 535 nm excitation and 615 nm emission using a microtiter plate reader. Data was converted into the relative cell viability (%) from the fluorescence of cells in each treatment relative to that of the DMSO control group (set as 100%).
# A875 shp75 cells = assay: Cell viability (Presto Blue), A875 shp75; type: cell-based, human; conditions: for viability at 5 µM: Div17E5 5 uM
# Method: as §1
# [2] = biological target: TMD of TrkB receptor tyrosine kinase (Homo sapiens, UniProt Q16620); assay: 2D NMR chemical shift perturbation, TrkB TMD in bicelles; type: binding; conditions: 4 molar excess compound
# A875 NT cells = assay: Filopodia per cell (phalloidin staining), A875 NT; type: cell-based, human; conditions: for Filopodia per cell, mean of the well: EXP1 NT; for Filopodia per cell, mean of experiment: EXP1-EXP3; for Filopodia per cell, mean of three experiments: mean of EXP1-3
# Method: For assessment of actin filaments, A875 cells were plated on glass coverslips in 24-well plate at a confluency of 3 × 10^4 cells/well. One day after plating, the cells were treated with 1 μM or 5 μM Np75-4A22 and NGF (100 ng/ml) or PBS for 24 h. Cells were fixed in 4% paraformaldehyde, permeabilized in 0.1% Triton-X-100, stained with Phalloidin-iFluor 488 (Abcam) at 1:2000 dilution and DAPI for 1 h. Coverslips were mounted and visualized in a laser confocal microscope.
# [3] = N=3, read-out: Cell Viability, Mean
# [4] = read-out: Cell Viability, n1-n3
# [5] = 1 uM 4A22 with 100 ng/ml NGF, A875 NT
# [6] = 5 uM 4A22 with 100 ng/ml NGF, A875 NT
# Chain of TMD of TrkB receptor tyrosine kinase (Q16620 419-466): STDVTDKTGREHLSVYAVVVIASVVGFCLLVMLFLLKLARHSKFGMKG
compound,measurement,setting,value
Oc1ccc(-c2cncc(Nc3ccc(Br)c(Cl)c3)n2)cc1 [Div17E5],"viability at 2 days, 0.5 uM","[1]; Div17E5 0.5 uM, read-out: Cell Viability, n1-n3",101%
same,"viability at 2 days, 1 uM",[1]; [3],107%
same,"viability at 2 days, 1 uM",[1]; [4],101%
same,"viability at 2 days, 1.5 uM",[1]; [3],103%
same,"viability at 2 days, 1.5 uM",[1]; [4],107%
same,"Cell Viability, n1-n3","A875 shp75 cells; Div17E5 0.5 uM, 2 days",104%
same,"Cell Viability, n1-n3","A875 shp75 cells; Div17E5 1 uM, 2 days",109% and 112%
same,"Cell Viability, n1-n3","A875 shp75 cells; Div17E5 1.5 uM, 2 days",100%
same,"Cell Viability, n1-n3","A875 shp75 cells; Div17E5 2 uM, 2 days",96% and 100%
same,"Cell Viability, n1-n3","A875 shp75 cells; Div17E5 2.5 uM, 2 days",90% and 99%
same,"Cell Viability, n1-n3","A875 shp75 cells; Div17E5 7.5 uM, 2 days",81% and 91%
same,"Cell Viability, n1-n3","A875 shp75 cells; Div17E5 10 uM, 2 days",90% and 78%
same,viability at 0.5 µM,"A875 shp75 cells; Homo sapiens, A875, 48 h, Div17E5 0.5 uM, 2 days, N=3",103%
same,viability at 2 µM,"A875 shp75 cells; Homo sapiens, A875, 48 h, Div17E5 2 uM, 2 days, N=3, read-out: Cell Viability, Mean",101%
same,viability at 2 µM,"A875 shp75 cells; Homo sapiens, A875, 48 h, Div17E5 2 uM, 2 days, read-out: Cell Viability, n1-n3",107%
same,viability at 2.5 µM,"A875 shp75 cells; Homo sapiens, A875, 48 h, Div17E5 2.5 uM, 2 days, N=3, read-out: Cell Viability, Mean",92%
same,viability at 2.5 µM,"A875 shp75 cells; Homo sapiens, A875, 48 h, Div17E5 2.5 uM, 2 days, read-out: Cell Viability, n1-n3",86%
same,viability at 5 µM,"A875 shp75 cells; Homo sapiens, A875, 48 h, 2 days, N=3, read-out: Cell Viability, Mean",93%
same,viability at 5 µM,"A875 shp75 cells; Homo sapiens, A875, 48 h, 2 days, read-out: Cell Viability, n1-n3",101%
same,viability at 7.5 µM,"A875 shp75 cells; Homo sapiens, A875, 48 h, Div17E5 7.5 uM, 2 days, N=3, read-out: Cell Viability, Mean",86%
same,viability at 7.5 µM,"A875 shp75 cells; Homo sapiens, A875, 48 h, Div17E5 7.5 uM, 2 days, read-out: Cell Viability, n1-n3",85%
same,viability at 10 µM,"A875 shp75 cells; Homo sapiens, A875, 48 h, Div17E5 10 uM, 2 days, N=3, read-out: Cell Viability, Mean",84%
same,viability at 10 µM,"A875 shp75 cells; Homo sapiens, A875, 48 h, Div17E5 10 uM, 2 days, read-out: Cell Viability, n1-n3",85%
same,cell viability,A875 shp75 cells; above 10 μM,sensitive
same,cell viability,A875 shp75 cells; doses up to 10 μM,largely refractory
Cc1cccc(-c2cncc(Nc3ccc(Br)c(Cl)c3Cl)n2)c1C [Np75-4A22],"chemical shift perturbations, TrkB TMD",[2],mostly non-specific interaction; also recorded: no or minimal chemical shift perturbations
same,"Filopodia per cell, mean of the well",A875 NT cells; 1 uM 4A22 + 100 ng/ml NGF,24.0741 and 41.2222 and 33.1667 and 30.2857
same,"Filopodia per cell, mean of experiment","A875 NT cells; 1 uM 4A22, A875 NT",30.1580 and 35.6954 and 33.9792
same,"Filopodia per cell, mean of three experiments","A875 NT cells; 1 uM 4A22, A875 NT",33.2775
same,"Filopodia per cell (Filopodia / cell), single image","A875 NT cells; 1 uM 4A22, A875 NT, per image of a well",35
same,"Filopodia per cell, mean of well","A875 NT cells; 1 uM 4A22, A875 NT",25.1429 and 30.1667 and 33.5 and 37.8333 and 34.4167
same,"Filopodia per cell, mean of the well",A875 NT cells; 1 uM 4A22,33.2292 and 40 and 23.375 and 24.0278
same,"Filopodia per cell, mean of experiment",A875 NT cells; [5],32.1872 and 28.1825 and 34.5833
same,"Filopodia per cell, mean of three experiments",A875 NT cells; [5],31.6510
same,"Filopodia per cell, mean of well",A875 NT cells; [5],24.6905 and 26.2143 and 30.7143 and 34.6667 and 32.8333 and 35 and 35.8333
same,"Filopodia per cell, mean of experiment","A875 NT cells; 5 uM 4A22, A875 NT",31.8244 and 33.2924 and 31.8750
same,"Filopodia per cell, mean of three experiments","A875 NT cells; 5 uM 4A22, A875 NT",32.3306
same,"Filopodia per cell, mean of well","A875 NT cells; 5 uM 4A22, A875 NT",30.0714 and 40.9286 and 30.3571 and 31.8125 and 34.9167 and 27.4167 and 31.1667 and 34
same,"Filopodia per cell, mean of the well",A875 NT cells; 5 uM 4A22,26.1667 and 28.75 and 43.1667 and 29.2143
same,"Filopodia per cell, mean of experiment",A875 NT cells; [6],28.5179 and 33.2679 and 34.0625
same,"Filopodia per cell, mean of three experiments",A875 NT cells; [6],31.9494
same,"Filopodia per cell, mean of well",A875 NT cells; [6],33.2976 and 34 and 40.1786 and 25.5952 and 29.75 and 31.9167 and 35.9167 and 38.6667
same,"filopodia per cell, compound alone",A875 NT cells; 1 or 5 μM,no effects per se
same,NGF-induced filopodia per cell,"A875 NT cells; 1 or 5 μM, NGF 100 ng/ml",completely abolished the effects of NGF
